Laboratory results reported in patent US20250019385A1, “SPIROCYCLIC ANNULATED 2-AMINO-3-CYANO THIOPHENES AND DERIVATIVES FOR THE TREATMENT OF CANCER” (Boehringer Ingelheim International GmbH, priority 2023, published 2025).

Target: KRAS (G12V)::CRAF protein::protein interaction (Homo sapiens (Human), UniProt P01116, C118S/G12V)
Assay: KRAS TR-FRET assay (KRAS G12V::CRAF, GTP)
Type: binding
Settings: not given
Method: (§1) This assay measures the inhibitory effect of compounds on KRAS::CRAF protein::protein interactions in the presence of GTP using Time-resolved fluorescence energy transfer (TR-FRET).
(§2) The following wildtype or mutant alleles of KRAS and CRAF protein have been used at the given concentrations:
KRAS (G12V) 1-169, C118S, N-terminal 6His-tag, C-terminal avi-tag (Boehringer Ingelheim in house protein prep); final assay concentration 15 nM.
(§3) CRAF Ras binding domain, GST-tag, TEV cleavage site (Boehringer Ingelheim in house protein prep); final assay concentration 15 nM.
(§4) Test compounds dissolved in DMSO were dispensed onto assay plates (Proxiplate 384 PLUS, white, PerkinElmer; 6008289) using an Access Labcyte Workstation with the Labcyte Echo 55x. For the chosen highest assay concentration of 100 μM, 150 nl of compound solution was transferred from a 10 mM DMSO compound stock solution. A series of eleven fivefold dilutions per compound was transferred to the assay plate, compound dilutions were tested in duplicates. DMSO was added as backfill to a total volume of 150 nl.
(§5) The assay runs on a fully automated robotic system. To 150 nl of compound dilution 15 μl of a mix including the respective KRAS allele, CRAF (e.g. KRAS (G12D)::CRAF; final assay concentrations see above), GTP nucleotide (Sigma G8877; final assay concentration 10 μM), Lance Eu—W1024 labeled Streptavidin (PerkinElmer, Cat No AD0063; final assay concentration 1.5 nM) and Anti-GST surelight APC (PerkinElmer, Cat No AD0059G; final assay concentration 30 nM) in assay buffer (1×PBS, 0.1% BSA, 0.05% Tween 20) are added into columns 1-23 and 15 μL of the solution without the respective KRAS allele were added to row 24.
(§6) Plates are kept at room temperature in a darkened incubator. After 60 minutes incubation time the signal is measured in a PerkinElmer Envision HTS Multilabel Reader using the TR-FRET LANCE Ultra specs from PerkinElmer.
(§7) Each plate contains 16 wells of a negative control (diluted DMSO instead of test compound; w respective KRAS allele; column 23) and 16 wells of a positive control (diluted DMSO instead of test compound; w/o respective KRAS allele; column 24).
(§8) IC50 values were calculated and analyzed with Boehringer Ingelheim's MEGALAB 50 application using a 4 parametric logistic model.
(§9) Tables of example compounds disclosed herein contain IC50 values determined using the above assays (see Table 44).

KRAS (G12V)::CRAF protein::protein interaction, sequence (P01116 other isoform, or with tags, fused parts or gaps G12V/C118S): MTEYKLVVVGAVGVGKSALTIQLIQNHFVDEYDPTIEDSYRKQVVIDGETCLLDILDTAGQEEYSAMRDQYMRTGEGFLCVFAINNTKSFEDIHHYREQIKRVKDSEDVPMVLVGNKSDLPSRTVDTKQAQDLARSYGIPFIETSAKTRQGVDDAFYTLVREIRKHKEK

Row | IC50 [nM] | Compound
1 | 196 | C[C@H](Oc1nc(-c2onc3c2CCC[C@@]32CCCc3sc(N)c(C#N)c32)nc2c1n(C)c(=O)n2[C@@H]1CCOC1)[C@@H]1C[C@H](F)CN1C [I-27]
2 | 110 | C[C@H](Oc1nc(-c2onc3c2CCC[C@@]32CCCc3sc(N)c(C#N)c32)nc2c1n(C)c(=O)n2C1CCOCC1)[C@@H]1CCCN1C [I-10]
3 | 69 | CO[C@@H]1C[C@@H]([C@H](C)Oc2nc(-c3onc4c3CCC[C@@]43CCCc4sc(N)c(C#N)c43)nc3c2n(C)c(=O)n3[C@@H]2CCOC2)N(C)C1 [I-3]
4 | 24 | C[C@H](Oc1nc(-c2noc3c2CCC[C@@]32CCCc3sc(N)c(C#N)c32)nc2c1n(C)c(=O)n2[C@@H]1CCOC1)[C@@H]1CCCN1C [II-2]
5 | 22 | C[C@H](Oc1nc(-c2onc3c2CCC[C@@]32CCCc3sc(N)c(C#N)c32)nc2c1n(C)c(=O)n2[C@@H]1CCCOC1)[C@@H]1CCCN1C [I-12]
6 | 12 | C[C@H](Oc1nc(-c2onc3c2CCC[C@@]32CCCc3sc(N)c(C#N)c32)nc2c1COC[C@]21CCOC1)[C@@H]1CCCN1C [I-54]
7 | 241 | C[C@H](Oc1nc(-c2onc3c2CCC[C@@]32CCCc3sc(N)c(C#N)c32)nc2c1n(C)c(=O)n2[C@@H]1CCOC1)[C@@H]1C[C@@H]2C[C@@H]2N1C [I-28]
8 | 119 | Cc1cc2c(O[C@@H](C)[C@@H]3CCCN3C)nc(-c3onc4c3CCC[C@@]43CCCc4sc(N)c(C#N)c43)nc2n1[C@@H]1CCOC1 [I-40]
9 | 405 | Cc1cn([C@@H]2CCOC2)c2nc(-c3onc4c3CCC[C@@]43CCCc4sc(N)c(C#N)c43)nc(O[C@@H](C)[C@@H]3CCCN3C)c12 [I-41]
10 | 149 | C[C@H](Oc1nc(-c2onc3c2CCC[C@@]32CCCc3sc(N)c(C#N)c32)nc2c1cnn2[C@@H]1CCOC1)[C@@H]1CCCN1C [I-43]
11 | 38 | C[C@H](Oc1nc(-c2noc3c2CCC[C@@]32CCCc3sc(N)c(C#N)c32)nc2c1CCCO[C@]21CCOC1)[C@@H]1CCCN1C [II-10]
12 | 25 | CO[C@H]1CCN(C)[C@@H]1[C@H](C)Oc1nc(-c2onc3c2CCC[C@@]32CCCc3sc(N)c(C#N)c32)nc2c1n(C)c(=O)n2[C@@H]1CCOC1 [I-23]

Target: KRAS (G12C)::SOS1 protein-protein interaction (Homo sapiens (Human), UniProt P01116, C118S/C51S/C80L/G12C)
Sequence (P01116 other isoform, or with tags, fused parts or gaps G12C/C51S/C80L/C118S): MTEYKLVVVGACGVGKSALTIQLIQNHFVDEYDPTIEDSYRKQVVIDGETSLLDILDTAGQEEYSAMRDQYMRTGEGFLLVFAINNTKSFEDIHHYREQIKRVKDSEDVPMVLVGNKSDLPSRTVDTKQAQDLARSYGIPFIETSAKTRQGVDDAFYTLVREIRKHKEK
Assay: KRAS::SOS1 AlphaScreen binding assay (KRAS G12C)
Settings: GDP
Text: This assay can be used to examine the potency with which compounds according to the invention binding to (mutated) KRAS inhibit the protein-protein interaction between SOS1 and (mutated) KRAS e.g. KRAS G12C, KRAS G12D. […] Low IC50 values in this assay setting are indicative of strong inhibition of protein-protein interaction between SOS1 and KRAS:
These assays measure the inhibitory effect of compounds on KRAS mutant protein-protein interactions using the Alpha Screen technology by Perkin Elmer.
The following (mutant) enzyme forms of KRAS and interacting proteins are used in these assays at the given concentrations:
KRAS (G12C) 1-169, N-terminal 6His-tag for purification, cleaved off, C-terminal avi-tag, biotinylated, mutations: C51S, C80L, C118S (in house); final assay concentration 7.5 nM and SOS1 564-1049, N-terminal 229 GST-tag, TEV cleavage site (Viva Biotech Ltd); final assay concentration 5 nM;
Test compounds dissolved in DMSO are dispensed onto assay plates (Proxiplate 384 PLUS, white, PerkinElmer; 6008289) using an Access Labcyte Workstation with the Labcyte Echo 55x. For the chosen highest assay concentration of 100 μM, 150 nL of compound solution are transferred from a 10 mM DMSO compound stock solution. A series of eleven fivefold dilutions per compound are transferred to the assay plate, compound dilutions are tested in duplicates. DMSO are added as backfill to a total volume of 150 nL.
The assays run on a fully automated robotic system in a darkened room below 100 Lux. To 150 nl of compound dilution 10 μl of a mix including KRAS mutant protein, SOS1 (final assay concentrations see above) and GDP nucleotide (Sigma G7127; final assay concentration 10 μM) in assay buffer (1×PBS, 0.1% BSA, 0.05% Tween 20) are added into columns 1-24.
After 30 minutes incubation time 5 μl of Alpha Screen bead mix in assay buffer are added into columns 1-23. Bead mix consists of AlphaLISA Glutathione Acceptor Beads (PerkinElmer, Cat No AL109) and AlphaScreen Streptavidin Donor Beads (PerkinElmer Cat No 6760002) in assay buffer at a final assay concentration of 10 μg/mL each.
Plates are kept at room temperature in a darkened incubator. After an additional 60 minutes incubation time the signal is measured in a PerkinElmer Envision HTS Multilabel Reader using the AlphaScreen specs from PerkinElmer.
Each plate contains up to 16 wells of a negative control depending on the dilution procedure (platewise or serial) (DMSO instead of test compound; with KRAS mutant::SOS1 GOP mix and bead mix; column 23) and 16 wells of a positive control (DMSO instead of test compound; with KRAS mutant::SOS1 GOP mix w/o bead mix; column 24).
As internal control known inhibitors of KRAS mutant::SOS1 interaction can be measured on each compound plate.
IC50 values are calculated and analyzed with Boehringer Ingelheim's MEGALAB C50 application using a 4 parametric logistic model.
Tables of example compounds disclosed herein contain IC50 values determined using the above assays (see Table 43).

Row | IC50 [nM] | Compound
13 | 2 | C[C@H](Oc1nc(-c2onc3c2CCC[C@@]32CCCc3sc(N)c(C#N)c32)nc2c1n(C)c(=O)n2[C@@H]1CCOC1)[C@@H]1C[C@H](F)CN1C [I-27]
14 | 2 | C[C@H](Oc1nc(-c2onc3c2CCC[C@@]32CCCc3sc(N)c(C#N)c32)nc2c1n(C)c(=O)n2C1CCOCC1)[C@@H]1CCCN1C [I-10]
15 | 1 | CO[C@@H]1C[C@@H]([C@H](C)Oc2nc(-c3onc4c3CCC[C@@]43CCCc4sc(N)c(C#N)c43)nc3c2n(C)c(=O)n3[C@@H]2CCOC2)N(C)C1 [I-3]
16 | 1 | C[C@H](Oc1nc(-c2noc3c2CCC[C@@]32CCCc3sc(N)c(C#N)c32)nc2c1n(C)c(=O)n2[C@@H]1CCOC1)[C@@H]1CCCN1C [II-2]
17 | 1 | C[C@H](Oc1nc(-c2onc3c2CCC[C@@]32CCCc3sc(N)c(C#N)c32)nc2c1n(C)c(=O)n2[C@@H]1CCCOC1)[C@@H]1CCCN1C [I-12]
18 | 2 | C[C@H](Oc1nc(-c2onc3c2CCC[C@@]32CCCc3sc(N)c(C#N)c32)nc2c1COC[C@]21CCOC1)[C@@H]1CCCN1C [I-54]
19 | 2 | C[C@H](Oc1nc(-c2onc3c2CCC[C@@]32CCCc3sc(N)c(C#N)c32)nc2c1n(C)c(=O)n2[C@@H]1CCOC1)[C@@H]1C[C@@H]2C[C@@H]2N1C [I-28]
20 | 2 | Cc1cc2c(O[C@@H](C)[C@@H]3CCCN3C)nc(-c3onc4c3CCC[C@@]43CCCc4sc(N)c(C#N)c43)nc2n1[C@@H]1CCOC1 [I-40]
21 | 4 | Cc1cn([C@@H]2CCOC2)c2nc(-c3onc4c3CCC[C@@]43CCCc4sc(N)c(C#N)c43)nc(O[C@@H](C)[C@@H]3CCCN3C)c12 [I-41]
22 | 2 | C[C@H](Oc1nc(-c2onc3c2CCC[C@@]32CCCc3sc(N)c(C#N)c32)nc2c1cnn2[C@@H]1CCOC1)[C@@H]1CCCN1C [I-43]
23 | 1 | C[C@H](Oc1nc(-c2noc3c2CCC[C@@]32CCCc3sc(N)c(C#N)c32)nc2c1CCCO[C@]21CCOC1)[C@@H]1CCCN1C [II-10]
24 | 1 | CO[C@H]1CCN(C)[C@@H]1[C@H](C)Oc1nc(-c2onc3c2CCC[C@@]32CCCc3sc(N)c(C#N)c32)nc2c1n(C)c(=O)n2[C@@H]1CCOC1 [I-23]

Target: KRAS (WT)::CRAF protein::protein interaction (Homo sapiens (Human), UniProt P01116)
Sequence (P01116 other isoform, or with tags, fused parts or gaps): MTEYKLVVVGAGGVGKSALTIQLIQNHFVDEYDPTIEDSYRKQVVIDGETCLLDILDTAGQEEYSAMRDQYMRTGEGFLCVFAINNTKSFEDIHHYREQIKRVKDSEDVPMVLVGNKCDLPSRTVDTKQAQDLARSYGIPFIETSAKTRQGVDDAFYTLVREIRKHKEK
Assay: KRAS TR-FRET assay (KRAS WT::CRAF, GTP)
Type: binding
Settings: not given
Method: as §1, §2
KRAS (WT) 1-169, N-terminal 6His-tag, C-terminal avi-tag (Boehringer Ingelheim in house protein prep); final assay concentration 15 nM.
as §3, §4, §5, §6, §7, §8, §9

Row | IC50 [nM] | Compound
25 | 462 | C[C@H](Oc1nc(-c2onc3c2CCC[C@@]32CCCc3sc(N)c(C#N)c32)nc2c1n(C)c(=O)n2[C@@H]1CCOC1)[C@@H]1C[C@H](F)CN1C [I-27]
26 | 348 | C[C@H](Oc1nc(-c2onc3c2CCC[C@@]32CCCc3sc(N)c(C#N)c32)nc2c1n(C)c(=O)n2C1CCOCC1)[C@@H]1CCCN1C [I-10]
27 | 101 | CO[C@@H]1C[C@@H]([C@H](C)Oc2nc(-c3onc4c3CCC[C@@]43CCCc4sc(N)c(C#N)c43)nc3c2n(C)c(=O)n3[C@@H]2CCOC2)N(C)C1 [I-3]
28 | 52 | C[C@H](Oc1nc(-c2noc3c2CCC[C@@]32CCCc3sc(N)c(C#N)c32)nc2c1n(C)c(=O)n2[C@@H]1CCOC1)[C@@H]1CCCN1C [II-2]
29 | 37 | C[C@H](Oc1nc(-c2onc3c2CCC[C@@]32CCCc3sc(N)c(C#N)c32)nc2c1n(C)c(=O)n2[C@@H]1CCCOC1)[C@@H]1CCCN1C [I-12]
30 | 33 | C[C@H](Oc1nc(-c2onc3c2CCC[C@@]32CCCc3sc(N)c(C#N)c32)nc2c1COC[C@]21CCOC1)[C@@H]1CCCN1C [I-54]
31 | 541 | C[C@H](Oc1nc(-c2onc3c2CCC[C@@]32CCCc3sc(N)c(C#N)c32)nc2c1n(C)c(=O)n2[C@@H]1CCOC1)[C@@H]1C[C@@H]2C[C@@H]2N1C [I-28]
32 | 233 | Cc1cc2c(O[C@@H](C)[C@@H]3CCCN3C)nc(-c3onc4c3CCC[C@@]43CCCc4sc(N)c(C#N)c43)nc2n1[C@@H]1CCOC1 [I-40]
33 | 1830 | Cc1cn([C@@H]2CCOC2)c2nc(-c3onc4c3CCC[C@@]43CCCc4sc(N)c(C#N)c43)nc(O[C@@H](C)[C@@H]3CCCN3C)c12 [I-41]
34 | 326 | C[C@H](Oc1nc(-c2onc3c2CCC[C@@]32CCCc3sc(N)c(C#N)c32)nc2c1cnn2[C@@H]1CCOC1)[C@@H]1CCCN1C [I-43]
35 | 56 | C[C@H](Oc1nc(-c2noc3c2CCC[C@@]32CCCc3sc(N)c(C#N)c32)nc2c1CCCO[C@]21CCOC1)[C@@H]1CCCN1C [II-10]
36 | 59 | CO[C@H]1CCN(C)[C@@H]1[C@H](C)Oc1nc(-c2onc3c2CCC[C@@]32CCCc3sc(N)c(C#N)c32)nc2c1n(C)c(=O)n2[C@@H]1CCOC1 [I-23]
